Measurements: patent US10351586B2, “Cytidine derivative dimers and applications thereof” (CHANGZHOU FANGYUAN PHARMACEUTICAL CO., LTD, priority 2014, dated 2019)
Marks after values point to notes of the source that are not given here.

Key:
[1] = Body weight / toxicity of a single intraperitoneal injection in HCT-116 colon tumor-bearing nude mice; settings: D3 350 mg/kg, D4 300 mg/kg; for Average rate of weight change of the animals / Average weight of the animals: single IP injection (QD×1), D1 and D2 400 mg/kg; for Average weight of the animals: Mean±SEM
[2] = test system: HCT-116 human colon cancer xenografts; assay: Tumor growth inhibition of HCT-116 human colon cancer xenografts in nude mice; format: in vivo, Balb/c nude mice; settings: for Relative tumor proliferation rate (T/C %) / Relative tumor volume (RTV) / Tumor growth inhibition rate (TGI %) / Tumor volume of HCT-116 human colon cancer xenografts: single IP injection (QD×1), D1 and D2 400 mg/kg, D3 350 mg/kg, D4 300 mg/kg; for Tumor volume of HCT-116 human colon cancer xenografts: Mean±SEM
Protocol: 2. Preparation of the test substance was performed by dissolving the test substance using the following solvents:
3. Animal experiments were performed. […] Animals were numbered using their tail number.
4.1 Tumor cells were human HCT-116 colon cancer cells purchased from the Institute of Cell Biology, Chinese Academy of Sciences (Beijing, China). F-12 medium (containing 10% FBS) was used to culture cells in a carbon dioxide incubator at about 37° C., saturated humidity, under 5% CO2 and 95% air. Before inoculation, cells in logarithmic growth phase were collected. After digested by 0.25% trypsin, the cells were washed with PBS once. The cells were resuspended with serum-free medium and counted. Serum-free medium were used for cell resuspension, until the cell concentration was adjusted to about 3×10^7 cell/mL.
4.2 Animal inoculation and grouping were performed.
The diameters (D) of the tumor nodules were measured three times a week with a circle sizer ruler. In addition, the following formula was applied to calculate the volume of the tumor nodules (V): V=[…](D/2)^3 generally for a spherical shape. Evaluation indexes of antitumor activity were tumor growth inhibition rate TGI (%) and relative tumor proliferation rate T/C (%).
The calculation formula of TGI was: TGI (%)=(Vcontrol−VTreatment)/Vcontrol)×100%. The relative tumor volume (RTV) was calculated by: RTV=Vt/V0, where V0 is the tumor volume at the time of group administration, and Vt is the tumor volume at the time of measurement.
The mice were weighed 3 times every week.
4.5 Data and statistical analysis were provided.

[3] = D1 400 mg/kg Day 7, D2 400 mg/kg Day 9, D3 350 mg/kg Day 11, D4 300 mg/kg Day 11, single IP

CCCCOC(=O)Nc1ccn(C2OC(COC(=O)CCC(=O)OC[C@H]3O[C@@H](n4ccc(NC(=O)OCc5ccccc5)nc4=O)C(F)(F)[C@@H]3O)C(O)C2(F)F)c(=O)n1 (stereo in doubt) [Compound D4, 1-O-(4-N-(Benzyloxycarbonyl)-gemcitabine)-4-O-(4-N-(n-Butoxycarbonyl)-gemcitabine)-succinate]
Average rate of weight change of the animals ([1]; Day 0): 0.00%
Average weight of the animals ([1]; Day 0): 20.15 ± 0.29 g
Average rate of weight change of the animals ([1]; Day 1): −1.17 ± 1.27%
Average weight of the animals ([1]; Day 1): 19.90 ± 0.19 g
Average rate of weight change of the animals ([1]; Day 2): −8.18 ± 1.56 %
Average weight of the animals ([1]; Day 2): 18.48 ± 0.2 g
Average rate of weight change of the animals ([1]; Day 4): −5.33 ± 1.78%
Average weight of the animals ([1]; Day 4): 19.07 ± 0.36 g
Average rate of weight change of the animals ([1]; Day 7): −1.43 ± 1.92%
Average weight of the animals ([1]; Day 7): 19.85 ± 0.38 g
Average rate of weight change of the animals ([1]; Day 9): 2.91 ± 0.55 %
Average weight of the animals ([1]; Day 9): 20.73 ± 0.29 g
Average rate of weight change of the animals ([1]; Day 11): 4.47 ± 0.52 %
Average weight of the animals ([1]; Day 11): 21.05 ± 0.31 g
Average rate of weight change of the animals ([1]; Day 14): 3.72 ± 0.73 %
Average weight of the animals ([1]; Day 14): 20.90 ± 0.34 g
Average rate of weight change of the animals ([1]; Day 16): 6.62 ± 0.79 %
Average weight of the animals ([1]; Day 16): 21.48 ± 0.34 g
Average rate of weight change of the animals ([1]; Day 18): 8.99 ± 1.38 %
Average weight of the animals ([1]; Day 18): 21.95 ± 0.27 g
Average rate of weight change of the animals ([1]; Day 21): 7.41 ± 1.37 %
Average weight of the animals ([1]; Day 21): 21.63 ± 0.30 g
Average rate of weight change of the animals ([1]; Day 23): 9.37 ± 1.82 %
Average weight of the animals ([1]; Day 23): 22.03 ± 0.43 g
Average rate of weight change of the animals ([1]; Day 25): 10.69 ± 2.14 %
Average weight of the animals ([1]; Day 25): 22.30 ± 0.49 g
Average rate of weight change of the animals ([1]; Day 28): 8.62 ± 2.68%
Average weight of the animals ([1]; Day 28): 21.88 ± 0.59 g
Average rate of weight change of the animals ([1]; Day 30): 9.36 ± 2.21%
Average weight of the animals ([1]; Day 30): 22.03 ± 0.53 g
Toxicity in tumor-bearing mice (in words) ([1]; single IP injection, D2 400 mg/kg, judged from body weight versus control): no toxicity
Relative tumor proliferation rate, minimum [2, 3]: 25.94%
Tumor inhibition rate, maximum [2, 3]: 97.32%
Relative tumor proliferation rate (T/C %) ([2]; Day 0): 0.00%
Relative tumor volume (RTV) ([2]; Day 0): 1.00
Tumor growth inhibition rate (TGI %) ([2]; Day 0): 0.00%
Tumor volume of HCT-116 human colon cancer xenografts ([2]; Day 0): 44.09 ± 5.99** mm^3
Relative tumor proliferation rate (T/C %) ([2]; Day 1): 77.07%
Relative tumor volume (RTV) ([2]; Day 1): 1.12 ± 0.12
Tumor growth inhibition rate (TGI %) ([2]; Day 1): 71.17%
Tumor volume of HCT-116 human colon cancer xenografts ([2]; Day 1): 52.03 ± 12.91** mm^3
Relative tumor proliferation rate (T/C %) ([2]; Day 2): 66.48%
Relative tumor volume (RTV) ([2]; Day 2): 1.12 ± 0.12
Tumor growth inhibition rate (TGI %) ([2]; Day 2): 76.55%
Tumor volume of HCT-116 human colon cancer xenografts ([2]; Day 2): 52.03 ± 12.91** mm^3
Relative tumor proliferation rate (T/C %) ([2]; Day 4): 43.31%
Relative tumor volume (RTV) ([2]; Day 4): 0.79 ± 0.11
Tumor growth inhibition rate (TGI %) ([2]; Day 4): 87.42%
Tumor volume of HCT-116 human colon cancer xenografts ([2]; Day 4): 37.37 ± 10.46** mm^3
Relative tumor proliferation rate (T/C %) ([2]; Day 7): 31.86%
Relative tumor volume (RTV) ([2]; Day 7): 0.55 ± 0.10
Tumor growth inhibition rate (TGI %) ([2]; Day 7): 94.11%
Tumor volume of HCT-116 human colon cancer xenografts ([2]; Day 7): 25.46 ± 8.17** mm^3
Relative tumor proliferation rate (T/C %) ([2]; Day 9): 30.55%
Relative tumor volume (RTV) ([2]; Day 9): 0.55 ± 0.12
Tumor growth inhibition rate (TGI %) ([2]; Day 9): 96.19%
Tumor volume of HCT-116 human colon cancer xenografts ([2]; Day 9): 22.50 ± 5.31** mm^3
Relative tumor proliferation rate (T/C %) ([2]; Day 11): 25.94%
Relative tumor volume (RTV) ([2]; Day 11): 0.69 ± 0.20
Tumor growth inhibition rate (TGI %) ([2]; Day 11): 97.32%
Tumor volume of HCT-116 human colon cancer xenografts ([2]; Day 11): 26.19 ± 5.79** mm^3
Relative tumor proliferation rate (T/C %) ([2]; Day 14): 32.83%
Relative tumor volume (RTV) ([2]; Day 14): 1.81 ± 0.54
Tumor growth inhibition rate (TGI %) ([2]; Day 14): 95.12%
Tumor volume of HCT-116 human colon cancer xenografts ([2]; Day 14): 70.28 ± 18.37** mm^3
Relative tumor proliferation rate (T/C %) ([2]; Day 16): 37.96%
Relative tumor volume (RTV) ([2]; Day 16): 3.29 ± 0.82
Tumor growth inhibition rate (TGI %) ([2]; Day 16): 92.12%
Tumor volume of HCT-116 human colon cancer xenografts ([2]; Day 16): 142.77 ± 49.34** mm^3
Relative tumor proliferation rate (T/C %) ([2]; Day 18): 26.76%
Relative tumor volume (RTV) ([2]; Day 18): 5.11 ± 1.12
Tumor growth inhibition rate (TGI %) ([2]; Day 18): 88.56%
Tumor volume of HCT-116 human colon cancer xenografts ([2]; Day 18): 228.58 ± 76.92** mm^3
Relative tumor proliferation rate (T/C %) ([2]; Day 21): 37.28%
Relative tumor volume (RTV) ([2]; Day 21): 8.73 ± 1.39
Tumor growth inhibition rate (TGI %) ([2]; Day 21): 84.66%
Tumor volume of HCT-116 human colon cancer xenografts ([2]; Day 21): 375.06 ± 86.27 mm^3
Relative tumor proliferation rate (T/C %) ([2]; Day 23): 50.04%
Relative tumor volume (RTV) ([2]; Day 23): 9.89 ± 1.30
Tumor growth inhibition rate (TGI %) ([2]; Day 23): 82.19%
Tumor volume of HCT-116 human colon cancer xenografts ([2]; Day 23): 420.73 ± 76.08 mm^3
Relative tumor proliferation rate (T/C %) ([2]; Day 25): 53.68%
Relative tumor volume (RTV) ([2]; Day 25): 11.61 ± 1.51
Tumor growth inhibition rate (TGI %) ([2]; Day 25): 80.98%
Tumor volume of HCT-116 human colon cancer xenografts ([2]; Day 25): 491.29 ± 83.78 mm^3
Relative tumor proliferation rate (T/C %) ([2]; Day 28): 69.72%
Relative tumor volume (RTV) ([2]; Day 28): 14.73 ± 2.18
Tumor growth inhibition rate (TGI %) ([2]; Day 28): 77.39%
Tumor volume of HCT-116 human colon cancer xenografts ([2]; Day 28): 608.08 ± 85.37 mm^3
Relative tumor proliferation rate (T/C %) ([2]; Day 30): 76.91%
Relative tumor volume (RTV) ([2]; Day 30): 19.08 ± 2.98
Tumor growth inhibition rate (TGI %) ([2]; Day 30): 72.14%
Tumor volume of HCT-116 human colon cancer xenografts ([2]; Day 30): 781.78 ± 105.33 mm^3
Inhibition of growth of HCT-116 human colon cancer xenografts (in words) ([2]; single IP injection, 300-400 mg/kg): higher tumor inhibition rates
